pKi: −log10 of the molar value.
Target: NMDARs
Assay: not given
Settings: read-out: Ki (binding / inhibition of NMDARs); cited from earlier work
In the case of CNC1(c2ccccc2Cl)CCCCC1=O (stereo not shown) [ketamine, reference compound], the pKi is given as 5.97 to 6.60.

System: not listed separately
Assay: pharmacokinetics in plasma and brain after intraperitoneal administration (UPLC-MS/MS)
Type: in vivo, mouse
Design: key to Brain Concentration over time, sex-dependent difference / Plasma Concentration over time, sex-dependent difference: F, female; M, male; NS, not statistically different
Settings: both sexes; i.p. 5 mg/kg; LLOQ 5.0 ng/ml
Protocol: Male and female CD-1 mice (Charles Rivers Laboratories, Raleigh, NC, USA), 8-11 weeks old at the time of testing, were habituated to the University of Maryland (Baltimore, MD, USA) animal facility for at least one week prior to testing. Mice were group housed 4-5 per cage with a constant 12-hour light cycle (lights on/off at 07:00/19:00). Food and water were available ad libitum. All experiments were performed during the light phase. All animal studies were approved by the University of Maryland School of Medicine Institutional Animal Care and Use Committee and conducted in accordance with the National Institutes of Health Guide for the Care and Use of Laboratory Animals.
(2R,6R)-HNK hydrochloride, (2S,6S)-HNK hydrochloride, (2R,6S)-HNK, (2S,6R)-HNK, (2R,5R)-HNK, (2S,5S)-HNK, (2R,5S)-HNK, (2S,5R)-HNK, (2R,4R)-HNK, (2S,4S)-HNK, (2R,4S)-HNK, and (2S,4R)-HNK hydrochloride were synthesized at the National Center for Advancing Translation Sciences (National Institutes of Health, Rockville, MD, USA) using methods previously described in Morris et al., Org Lett 17:4572-4575 (2017), which is incorporated by reference herein in its entirety. (5R)-methyl-(2R,6R)-HNK was obtained from Organix Inc. (Woburn, MA, USA) or from the National Center for Advancing Translational Sciences (Rockville, MD, USA); synthesis and characterization are described in the Supplemental Information. All compounds were dissolved in 20% (w/v) cyclodextrin (Sigma Aldrich, USA) in saline and administered intraperitoneally (i.p.) in a volume of 7.5 ml/kg.
At 10 min (0.167 h), 30 min (0.5 h), 1 h, 2 h, and 4 h post-treatment, mice were deeply anesthetized (3.5% isoflurane for approximately 2 min). Trunk blood was collected into 1.5-ml polypropylene tubes containing 30 μl of disodium EDTA (0.5 M, pH 8.0) and kept on ice until plasma collection (<30 min). Brains were then removed, flash-frozen in isopentane, and stored at −80° C. until analysis. Blood was centrifuged at 8000×g for 6 min at 4° C. to obtain plasma. Plasma was collected into clean microcentrifuge tubes and stored at −80° C. until analysis.
Ultra-performance liquid chromatography-tandem mass spectrometry (UPLC-MS/MS) methods were developed and optimized to determine the concentration of each HNK in mouse plasma and brain samples following systemic administration. Mass spectrometric analysis was performed on a Waters Xevo TQ-S triple quadrupole instrument using electrospray ionization in positive mode with the selected reaction monitoring. The separation of HNKs from endogenous components was performed on a Waters Acquity UPLC with 0.5 ml/min flow rate and gradient elution. The mobile phase A and B were 0.1% formic acid in water and 0.1% formic acid in acetonitrile, respectively. Plasma and brain concentrations of (2R,6R)-, (2S,6S)-, (2R,4S)-, and (2S,4R)-HNK were determined by hydrophilic interaction liquid chromatography-tandem mass spectrometry (HILIC UPLC-MS/MS) using a BEH amide column (1.7μ, 2.1×50 mm). Plasma and brain concentrations of (2R,6S)-, (2S,6R)-, (2R,5R)- (2S,5S)-, (2R,5S)-, (2S,5R)-, (2R,4R)-, and (2S,4S)-HNK; and (5R)-methyl-(2R,6R)-HNK were determined by reversed phase UPLC-MS/MS based upon a previously described protocol with several modifications using a BEH C18 column ([…], 2.1×50 mm). See Moaddel et al., Talanta 82:1892-1904 (2010), and Zanos et al., Nature 533:481-486 ([…]), both of which are incorporated by reference herein in their entireties.
The gradient for HILIC UPLC method was: 0-0.2 min 98% B; 0.2-1.4 min 98% to 35% B; 1.4-1.8 min 35% to 10% B, 1.9-2.4 min 98% B. The gradient for BEH Cis UPLC method was: 0-0.2 min 1% B; 0.2-1.4 min 1% to 35% B; 1.4-1.8 min 35% to 98% B, 1.8-2.2 min 98% B, 2.3 min 1% B. The analytical run time of the UPLC methods was 2.5 min. The calibration standards and quality control samples were prepared in blank mouse plasma and brain homogenate. Calibration standards ranged from 5.0-5000 ng/ml. […]
For N[C@]1(c2ccccc2Cl)C[C@H](O)CCC1=O [(2S,4R)-HNK], the “brain concentration at 4 h post-treatment” value was “below LLOQs”. In the case of N[C@]1(c2ccccc2Cl)CC[C@H](O)CC1=O [(2S,5S)-HNK], the “brain concentration at 4 h post-treatment” value was “below LLOQs”.

Same assay, conditions: female mice; i.p. 5 mg/kg
With N[C@@]1(c2ccccc2Cl)C[C@H](O)CCC1=O [(2R,4R)-HNK] the “B:P ratio (brain to plasma AUC ratio)” value was 1.2. For N[C@@]1(c2ccccc2Cl)C[C@@H](O)CCC1=O [(2R,4S)-HNK], the “B:P ratio (brain to plasma AUC ratio)” value was 1.0. For N[C@@]1(c2ccccc2Cl)CC[C@@H](O)CC1=O [(2R,5R)-HNK], the “B:P ratio (brain to plasma AUC ratio)” value was 1.4. With N[C@@]1(c2ccccc2Cl)CC[C@H](O)CC1=O [(2R,5S)-HNK] the “B:P ratio (brain to plasma AUC ratio)” value was 1.0 and the “Tmax in the brain” value was 30 min. For N[C@]1(c2ccccc2Cl)C[C@H](O)CCC1=O [(2S,4R)-HNK], the “B:P ratio (brain to plasma AUC ratio)” value was 1.0. In the case of N[C@]1(c2ccccc2Cl)C[C@@H](O)CCC1=O [(2S,4S)-HNK], the “B:P ratio (brain to plasma AUC ratio)” value was 0.9. For N[C@]1(c2ccccc2Cl)CC[C@@H](O)CC1=O [(2S,5R)-HNK], the “B:P ratio (brain to plasma AUC ratio)” value was 1.0. For N[C@]1(c2ccccc2Cl)CC[C@H](O)CC1=O [(2S,5S)-HNK], the “B:P ratio (brain to plasma AUC ratio)” value was 1.3.

Same assay, conditions: female mice; i.p. 5 mg/kg; terminal half-life
In the case of N[C@@]1(c2ccccc2Cl)C[C@H](O)CCC1=O [(2R,4R)-HNK], the “t1/2 Brain” value was 30 min and the “t1/2 Plasma” value was 30 min. For N[C@@]1(c2ccccc2Cl)C[C@@H](O)CCC1=O [(2R,4S)-HNK], the “t1/2 Brain” value was 18 min and the “t1/2 Plasma” value was 42 min. With N[C@@]1(c2ccccc2Cl)CC[C@@H](O)CC1=O [(2R,5R)-HNK] the “t1/2 Brain” value was 30 min and the “t1/2 Plasma” value was 30 min. In the case of N[C@@]1(c2ccccc2Cl)CC[C@H](O)CC1=O [(2R,5S)-HNK], the “t1/2 Brain” value was 30 min and the “t1/2 Plasma” value was 30 min. In the case of N[C@]1(c2ccccc2Cl)C[C@H](O)CCC1=O [(2S,4R)-HNK], the “t1/2 Brain” value was 18 min and the “t1/2 Plasma” value was 24 min. In the case of N[C@]1(c2ccccc2Cl)C[C@@H](O)CCC1=O [(2S,4S)-HNK], the “t1/2 Brain” value was 36 min and the “t1/2 Plasma” value was 42 min. In the case of N[C@]1(c2ccccc2Cl)CC[C@@H](O)CC1=O [(2S,5R)-HNK], the “t1/2 Brain” value was 30 min and the “t1/2 Plasma” value was 30 min. In the case of N[C@]1(c2ccccc2Cl)CC[C@H](O)CC1=O [(2S,5S)-HNK], the “t1/2 Brain” value was 18 min and the “t1/2 Plasma” value was 36 min.

Same assay, conditions: female vs male mice; i.p. 5 mg/kg; ANOVA, Holm-Šídák post-hoc
With N[C@@]1(c2ccccc2Cl)C[C@H](O)CCC1=O [(2R,4R)-HNK] the “Brain Concentration over time, sex-dependent difference” value was “F > M at 10 min” and the “Plasma Concentration over time, sex-dependent difference” value was “F > M at 10 min”. In the case of N[C@@]1(c2ccccc2Cl)C[C@@H](O)CCC1=O [(2R,4S)-HNK], the “Brain Concentration over time, sex-dependent difference” value was “M > F at 10, 30, 60 min” and the “Plasma Concentration over time, sex-dependent difference” value was “M > F at 10, 30 min”. For N[C@@]1(c2ccccc2Cl)CC[C@@H](O)CC1=O [(2R,5R)-HNK], the “Brain Concentration over time, sex-dependent difference” value was “NS” and the “Plasma Concentration over time, sex-dependent difference” value was “main effect of sex, M > F”. For N[C@@]1(c2ccccc2Cl)CC[C@H](O)CC1=O [(2R,5S)-HNK], the “Brain Concentration over time, sex-dependent difference” value was “F > M at 10, 30 min” and the “Plasma Concentration over time, sex-dependent difference” value was “F > M at 10, 30 min”. In the case of N[C@]1(c2ccccc2Cl)C[C@H](O)CCC1=O [(2S,4R)-HNK], the “Brain Concentration over time, sex-dependent difference” value was “F > M at 10 min” and the “Plasma Concentration over time, sex-dependent difference” value was “F > M at 10 min”. For N[C@]1(c2ccccc2Cl)C[C@@H](O)CCC1=O [(2S,4S)-HNK], the “Brain Concentration over time, sex-dependent difference” value was “F > M at 10, 30 min” and the “Plasma Concentration over time, sex-dependent difference” value was “F > M at 10, 30 min”. For N[C@]1(c2ccccc2Cl)CC[C@@H](O)CC1=O [(2S,5R)-HNK], the “Brain Concentration over time, sex-dependent difference” value was “NS” and the “Plasma Concentration over time, sex-dependent difference” value was “M > F at 30, 60 min”. With N[C@]1(c2ccccc2Cl)CC[C@H](O)CC1=O [(2S,5S)-HNK] the “Brain Concentration over time, sex-dependent difference” value was “NS” and the “Plasma Concentration over time, sex-dependent difference” value was “NS”.

Same assay, conditions: female vs male mice; i.p. 5 mg/kg; t-test
For N[C@@]1(c2ccccc2Cl)C[C@H](O)CCC1=O [(2R,4R)-HNK], the “Brain Total exposure (AUC), sex-dependent difference” value was “M > F” and the “Plasma Total exposure (AUC), sex-dependent difference” value was “M > F”. With N[C@@]1(c2ccccc2Cl)C[C@@H](O)CCC1=O [(2R,4S)-HNK] the “Brain Total exposure (AUC), sex-dependent difference” value was “M > F” and the “Plasma Total exposure (AUC), sex-dependent difference” value was “M > F”. With N[C@@]1(c2ccccc2Cl)CC[C@@H](O)CC1=O [(2R,5R)-HNK] the “Plasma Total exposure (AUC), sex-dependent difference” value was “M > F”. For N[C@@]1(c2ccccc2Cl)CC[C@H](O)CC1=O [(2R,5S)-HNK], the “Brain Total exposure (AUC), sex-dependent difference” value was “F > M” and the “Plasma Total exposure (AUC), sex-dependent difference” value was “F > M”. With N[C@]1(c2ccccc2Cl)C[C@@H](O)CCC1=O [(2S,4S)-HNK] the “Brain Total exposure (AUC), sex-dependent difference” value was “F > M” and the “Plasma Total exposure (AUC), sex-dependent difference” value was “F > M”. For N[C@]1(c2ccccc2Cl)CC[C@@H](O)CC1=O [(2S,5R)-HNK], the “Brain Total exposure (AUC), sex-dependent difference” value was “M > F” and the “Plasma Total exposure (AUC), sex-dependent difference” value was “M > F”.

Same assay, conditions: females, but not males; i.p. 5 mg/kg; LLOQ 5.0 ng/ml
In the case of N[C@@]1(c2ccccc2Cl)C[C@@H](O)CCC1=O [(2R,4S)-HNK], the “brain concentration at 4 h post-treatment” value was “below LLOQs”.

Same assay, conditions: male mice; i.p. 5 mg/kg
With N[C@@]1(c2ccccc2Cl)C[C@H](O)CCC1=O [(2R,4R)-HNK] the “B:P ratio (brain to plasma AUC ratio)” value was 1.3 and the “Tmax in the brain” value was 30 min. In the case of N[C@@]1(c2ccccc2Cl)C[C@@H](O)CCC1=O [(2R,4S)-HNK], the “B:P ratio (brain to plasma AUC ratio)” value was 1.1. With N[C@@]1(c2ccccc2Cl)CC[C@@H](O)CC1=O [(2R,5R)-HNK] the “B:P ratio (brain to plasma AUC ratio)” value was 1.2. For N[C@@]1(c2ccccc2Cl)CC[C@H](O)CC1=O [(2R,5S)-HNK], the “B:P ratio (brain to plasma AUC ratio)” value was 0.9. In the case of N[C@]1(c2ccccc2Cl)C[C@H](O)CCC1=O [(2S,4R)-HNK], the “B:P ratio (brain to plasma AUC ratio)” value was 0.9. For N[C@]1(c2ccccc2Cl)C[C@@H](O)CCC1=O [(2S,4S)-HNK], the “B:P ratio (brain to plasma AUC ratio)” value was 0.7. With N[C@]1(c2ccccc2Cl)CC[C@@H](O)CC1=O [(2S,5R)-HNK] the “B:P ratio (brain to plasma AUC ratio)” value was 0.7 and the “Tmax in the brain” value was 30 min. For N[C@]1(c2ccccc2Cl)CC[C@H](O)CC1=O [(2S,5S)-HNK], the “B:P ratio (brain to plasma AUC ratio)” value was 1.2.

Same assay, conditions: male mice; i.p. 5 mg/kg; terminal half-life
For N[C@@]1(c2ccccc2Cl)C[C@H](O)CCC1=O [(2R,4R)-HNK], the “t1/2 Brain” value was 36 min and the “t1/2 Plasma” value was 36 min. With N[C@@]1(c2ccccc2Cl)C[C@@H](O)CCC1=O [(2R,4S)-HNK] the “t1/2 Brain” value was 30 min and the “t1/2 Plasma” value was 36 min. With N[C@@]1(c2ccccc2Cl)CC[C@@H](O)CC1=O [(2R,5R)-HNK] the “t1/2 Brain” value was 24 min and the “t1/2 Plasma” value was 30 min. With N[C@@]1(c2ccccc2Cl)CC[C@H](O)CC1=O [(2R,5S)-HNK] the “t1/2 Brain” value was 30 min and the “t1/2 Plasma” value was 30 min. In the case of N[C@]1(c2ccccc2Cl)C[C@H](O)CCC1=O [(2S,4R)-HNK], the “t1/2 Brain” value was 24 min and the “t1/2 Plasma” value was 30 min. For N[C@]1(c2ccccc2Cl)C[C@@H](O)CCC1=O [(2S,4S)-HNK], the “t1/2 Brain” value was 36 min and the “t1/2 Plasma” value was 42 min. For N[C@]1(c2ccccc2Cl)CC[C@@H](O)CC1=O [(2S,5R)-HNK], the “t1/2 Brain” value was 42 min and the “t1/2 Plasma” value was 36 min. In the case of N[C@]1(c2ccccc2Cl)CC[C@H](O)CC1=O [(2S,5S)-HNK], the “t1/2 Brain” value was 18 min and the “t1/2 Plasma” value was 30 min.
